# Patent US20050203191A1, “1-Aminocyclohexane derivatives for the treatment of agitation and other behavioral disorders, especially those associated with alzheimer's disease” (priority 2004, published 2005)
# System: patients suffering from moderate to severe AD
# Test: MZ-9605 (Therapy Example 1): 28-week double-blind placebo-controlled trial of memantine 20 mg/day
# Assay type: in vivo, human
# Description: Patients suffering from moderate to severe AD were randomized to placebo or 20 mg memantine daily for 28 weeks. Primary efficacy variables were the Clinician's Interview-Based Impression of Change plus caregiver input (CIBIC-Plus) and the Alzheimer's Disease Cooperative Study Activities of Daily Living Inventory modified for severe dementia (ADCS-ADL). Secondary efficacy variables included the Severe Impairment Battery (SIB) and Neuropsychiatric Inventory (NPI). Treatment differences between baseline and endpoint were assessed. Incomplete observations were imputed using the most recent previous observation (last observation carried forward—LOCF). Results were also analyzed using only the observed values, where missing values were not replaced (Observed Cases (OC) analysis). AD patients (N=252), (67 percent female, mean age=76 years), were randomized from 32 U.S. centers. Of these, 181 completed the study (72 percent) and were evaluated at week 28. Seventy-one patients discontinued treatment prematurely (42 placebo, 29 memantine). Change on the CIBIC-Plus favored memantine over placebo (P=0.06 LOCF, P=0.03 OC) Memantine-treated patients deteriorated less than placebo treated patients on the ADCS-ADL (P=0.02 LOCF, P=0.003 OC) and the SBI (P=<0.001 LOCF, P=0.002 OC). NPI change scores at week 28 were statistically significant. Depending on the type of analysis, this benefit was found in two domains: agitation (p=0.008 LOCF) and delusion (p=0.04 LOCF) or for agitation, only (p=0.023 OC). The finding for agitation also occurred in the dichotomised analyses for memantine-treated patients with and without behavioural symptoms at baseline. […] This study supports the antiglutamatergic treatment approach in moderate to severe AD, a phase associated with patient distress and caregiver burden, for which other treatments are not available and the treatment of behavioral disorders associated therewith.
# Community residing patients at least 50 years old with probable AD according to Diagnostic and Statistical Manual of Mental Disorders (DSM-IV) (American Psychiatric Association. Diagnostic and statistical manual of mental disorders. 4th ed. Washington: American Psychiatric Association; 1994.) and National Institute of Neurologic and Communicative Disorders and Stroke and AD and Related Disorders Association (NINCDS-ADRDA) criteria (McKhann G, Drachman D, Folstein M, Katzman R, Price D, Stadlan E M, Clinical diagnosis of Alzheimer's disease: report of the NINCDS-ADRDA Work Group under the auspices of Department of Health and Human Services Task Force on Alzheimer's Disease. Neurology 1984;34:939-44) were recruited. Eligibility criteria included: baseline Mini-Mental State Examination (MMSE) scores of 3-14 (Folstein M F, Folstein, S E, McHugh, P R, Mini-mental state. A practical method for grading the cognitive state of patients for the clinician. J Psychiat Res 1975;12:189-98.), stage 5 or 6 on the Global Deterioration Scale (GDS) (Reisberg B, Ferris S H, de Leon M J, Crook T, The Global Deterioration Scale for assessment of primary degenerative dementia. Am J Psychiatry 1982;139:1136-9.), and a stage of 6a or greater on the Functional Assessment Staging (FAST) (Sclan S G, Reisberg B, Functional assessment staging (FAST) in Alzheimer's disease: reliability, validity, and ordinality. Int Psychogeriatr 1992;4 Suppl 1:55-69.) instrument, signifying the presence of dementia-related deficits in the ability to perform one or more basic activities of daily living. Patients had reliable caregivers and recent (within 12 months) computed tomography (CT) or magnetic resonance imaging (MRI). […]
# [1] = MZ-9605, week 28, ITT LOCF, NPI total score <75%
# [2] = MZ-9605, week 28, ITT LOCF, NPI total score ≧=75% (top quartile)
# [3] = MZ-9605, week 28, ITT LOCF, antipsychotics usage “YES” (N = n)
# [4] = MZ-9605, week 28, ITT LOCF, antipsychotics usage “YES” (N = y)
# [5] = MZ-9605, week 28, ITT LOCF, baseline NPI agitation score <4
# [6] = MZ-9605, week 28, ITT LOCF, baseline NPI agitation score ≧=4
# [7] = MZ-9605, week 28, ITT LOCF, overall
smiles,measurement,setting,value
"CC12CC3CC(C)(C1)CC(N)(C3)C2 [memantine, 1-amino-3,5-dimethyl adamantane]",adverse events,"20 mg/day, 28 weeks",not associated with significant adverse events
same,patients who experienced an adverse event of agitation,"20 mg/day, 28 weeks",18%
same,premature discontinuations due to adverse events,"20 mg/day, prior to week 28",10%
same,Change (baseline to week 28) in NPI domain Aberr. Mot. Behavior,"ITT, OC",0.01
same,Change (baseline to week 28) in NPI domain Agitation/Aggression,"ITT, OC",−0.01
same,Change (baseline to week 28) in NPI domain Anxiety,"ITT, OC",0.51
same,Change (baseline to week 28) in NPI domain Apathy/Indifference,"ITT, OC",−0.25
same,Change (baseline to week 28) in NPI domain App./Eating Change,"ITT, OC",0.00
same,Change (baseline to week 28) in NPI domain Delusions,"ITT, OC",−0.38
same,Change (baseline to week 28) in NPI domain Depression/Dysphoria,"ITT, OC",0.00
same,Change (baseline to week 28) in NPI domain Disinhibition,"ITT, OC",−0.53
same,Change (baseline to week 28) in NPI domain Elation/Euphoria,"ITT, OC",0.18
same,Change (baseline to week 28) in NPI domain Hallucinations,"ITT, OC",0.47
same,Change (baseline to week 28) in NPI domain Irritabililty/Lability,"ITT, OC",0.04
same,Change (baseline to week 28) in NPI domain Night-time Behavior,"ITT, OC",0.05
same,"ADCS-ADL (change) LS Mean Diff., MEM v. PLA",[1],1.48
same,ADCS-ADL (change) mean,[1],−3.4
same,"CIBIC-PLUS Raw Mean Diff., MEM v. PLA",[1],−0.2
same,CIBIC-PLUS mean,[1],4.4
same,"SIB (change) LS Mean Diff., MEM v. PLA",[1],3.36
same,SIB (change) mean,[1],−5.6
same,"ADCS-ADL (change) LS Mean Diff., MEM v. PLA",[2],−3.47
same,ADCS-ADL (change) mean,[2],−2.1
same,"CIBIC-PLUS Raw Mean Diff., MEM v. PLA",[2],−0.4
same,CIBIC-PLUS mean,[2],4.6
same,"SIB (change) LS Mean Diff., MEM v. PLA",[2],13.3
same,SIB (change) mean,[2],0.03
same,"ADCS-ADL (change) LS Mean Diff., MEM v. PLA",[3],1.9
same,ADCS-ADL (change) mean,[3],−2.7
same,"CIBIC-PLUS Raw Mean Diff., MEM v. PLA",[3],−0.22
same,CIBIC-PLUS mean,[3],4.47
same,"SIB (change) LS Mean Diff., MEM v. PLA",[3],5.1
same,SIB (change) mean,[3],−4.1
same,"ADCS-ADL (change) LS Mean Diff., MEM v. PLA",[4],0.9
same,ADCS-ADL (change) mean,[4],−5.5
same,"CIBIC-PLUS Raw Mean Diff., MEM v. PLA",[4],−0.29
same,CIBIC-PLUS mean,[4],4.62
same,"SIB (change) LS Mean Diff., MEM v. PLA",[4],10.6
same,SIB (change) mean,[4],−2.5
same,"ADCS-ADL (change) LS Mean Diff., MEM v. PLA",[5],1.18
same,ADCS-ADL (change) mean,[5],−3.5
same,"CIBIC-PLUS Raw Mean Diff., MEM v. PLA",[5],−0.2
same,CIBIC-PLUS mean,[5],4.5
same,"SIB (change) LS Mean Diff., MEM v. PLA",[5],3.75
same,SIB (change) mean,[5],−4.8
same,"ADCS-ADL (change) LS Mean Diff., MEM v. PLA",[6],4.97
same,ADCS-ADL (change) mean,[6],−1.2
same,"CIBIC-PLUS Raw Mean Diff., MEM v. PLA",[6],−0.5
same,CIBIC-PLUS mean,[6],4.4
same,"SIB (change) LS Mean Diff., MEM v. PLA",[6],14.05
same,SIB (change) mean,[6],−0.5
same,"ADCS-ADL (change) LS Mean Diff., MEM v. PLA","MZ-9605, week 28, ITT LOCF, baseline NPI agitation score ≧=4, listed as MEM",−4.97
same,"ADCS-ADL (change) LS Mean Diff., MEM v. PLA",[7],2.06
same,ADCS-ADL (change) LS mean,[7],−3.02
same,CIBIC-PLUS LS mean,[7],4.48
same,"CIBIC-PLUS Raw Mean Diff., MEM v. PLA",[7],−0.25
same,"SIB (change) LS Mean Diff., MEM v. PLA",[7],5.91
same,SIB (change) LS mean,[7],−3.93
same,"CIBIC-Plus ratings, mean difference memantine v. placebo",at endpoint (LOCF),0.3
same,"ADCS-ADL total score, mean difference memantine v. placebo","endpoint, LOCF",−2.1
same,"SIB total score, mean difference memantine v. placebo","endpoint, LOCF",−2.1
same,"ADCS-ADL total score, mean difference memantine v. placebo","week 28, OC",−3.4
same,"CIBIC-Plus ratings, mean difference memantine v. placebo","week 28, OC",0.4
same,"SIB total score, mean difference memantine v. placebo","week 28, OC",−3.4
